Source: ChEMBL document CHEMBL1151757, “Synthesis, radiosynthesis, and biological evaluation of fluorine-18-labeled 2beta-carbo(fluoroalkoxy)-3beta-(3'-((Z)-2-haloethenyl)phenyl)nortropanes: candidate radioligands for in vivo imaging of the serotonin transporter with positron emission tomography” (J Med Chem, 2008)

What was measured:
[1] = Ratio of drug uptake in pons to cerebellum in anesthetized cynomolgus monkey after 85 mins postinjection; assay type: ADME, organism-based, Macaca fascicularis; conditions: in vivo
[2] = Ratio of drug uptake in pons to cerebellum in anesthetized cynomolgus monkey after 105 mins postinjection; assay type: ADME, organism-based, Macaca fascicularis; conditions: in vivo, 1.75 h
[3] = Drug uptake in anesthetized cynomolgus monkey brain occipital lobe after 6.5 mins postinjection; assay type: ADME, organism-based, Macaca fascicularis; parameters: unit not given here; conditions: in vivo
[4] = Drug uptake in anesthetized cynomolgus monkey brain frontal lobe after 27.5 mins postinjection; assay type: ADME, organism-based, Macaca fascicularis; conditions: in vivo
[5] = test system: Putamen; assay: Drug uptake in anesthetized cynomolgus monkey brain putamen after 135 mins postinjection; assay type: ADME, organism-based, Macaca fascicularis; conditions: in vivo, 2.25 h
[6] = test system: Putamen; assay: Drug uptake in anesthetized cynomolgus monkey brain putamen after 215 mins postinjection; assay type: ADME, organism-based, Macaca fascicularis; conditions: in vivo
[7] = test system: Thalamus; assay: Drug uptake in anesthetized cynomolgus monkey brain thalamus after 1.5 mins postinjection; assay type: ADME, organism-based, Macaca fascicularis; conditions: in vivo, 0.025 h
[8] = Ratio of drug uptake in occipital lobe to cerebellum in anesthetized cynomolgus monkey after 235 mins postinjection; assay type: ADME, organism-based, Macaca fascicularis; conditions: in vivo
[9] = Ratio of drug uptake in frontal lobe to cerebellum in anesthetized cynomolgus monkey after 135 mins postinjection; assay type: ADME, organism-based, Macaca fascicularis; conditions: in vivo, 2.25 h
[10] = test system: Midbrain; assay: Drug uptake in anesthetized cynomolgus monkey brain midbrain after 135 mins postinjection; assay type: ADME, organism-based, Macaca fascicularis; conditions: in vivo, 2.25 h
[11] = test system: Midbrain; assay: Drug uptake in anesthetized cynomolgus monkey brain midbrain after 175 mins postinjection; assay type: ADME, organism-based, Macaca fascicularis; conditions: in vivo
[12] = test system: Pons; assay: Drug uptake in anesthetized cynomolgus monkey brain pons after 1.5 mins postinjection; assay type: ADME, organism-based, Macaca fascicularis; conditions: in vivo, 0.025 h
[13] = test system: Pons; assay: Drug uptake in anesthetized cynomolgus monkey brain pons after 2.5 mins postinjection; assay type: ADME, organism-based, Macaca fascicularis; conditions: in vivo
[14] = test system: Pons; assay: Drug uptake in anesthetized cynomolgus monkey brain pons after 18.5 mins postinjection; assay type: ADME, organism-based, Macaca fascicularis; conditions: in vivo
[15] = test system: Pons; assay: Drug uptake in anesthetized cynomolgus monkey brain pons after 45 mins postinjection; assay type: ADME, organism-based, Macaca fascicularis; conditions: in vivo, 0.75 h
[16] = test system: Pons; assay: Drug uptake in anesthetized cynomolgus monkey brain pons after 75 mins postinjection; assay type: ADME, organism-based, Macaca fascicularis; conditions: in vivo, 1.25 h
[17] = test system: Pons; assay: Drug uptake in anesthetized cynomolgus monkey brain pons after 95 mins postinjection; assay type: ADME, organism-based, Macaca fascicularis; conditions: in vivo
[18] = Ratio of drug uptake in caudate to cerebellum in anesthetized cynomolgus monkey after 95 mins postinjection; assay type: ADME, organism-based, Macaca fascicularis; conditions: in vivo
[19] = test system: Pons; assay: Drug uptake in anesthetized cynomolgus monkey brain pons after 155 mins postinjection; assay type: ADME, organism-based, Macaca fascicularis; conditions: in vivo
[20] = test system: Medulla; assay: Drug uptake in anesthetized cynomolgus monkey brain medulla after 15.5 mins postinjection; assay type: ADME, organism-based, Macaca fascicularis; conditions: in vivo
[21] = test system: Medulla; assay: Drug uptake in anesthetized cynomolgus monkey brain medulla after 95 mins postinjection; assay type: ADME, organism-based, Macaca fascicularis; conditions: in vivo
[22] = test system: Medulla; assay: Drug uptake in anesthetized cynomolgus monkey brain medulla after 145 mins postinjection; assay type: ADME, organism-based, Macaca fascicularis; conditions: in vivo
[23] = Drug uptake in anesthetized cynomolgus monkey brain cerebellum after 22.5 mins postinjection; assay type: ADME, organism-based, Macaca fascicularis; conditions: in vivo, 0.375 h
[24] = Drug uptake in anesthetized cynomolgus monkey brain cerebellum after 65 mins postinjection; assay type: ADME, organism-based, Macaca fascicularis; conditions: in vivo
[25] = Ratio of drug uptake in thalamus to cerebellum in anesthetized cynomolgus monkey after 115 mins postinjection; assay type: ADME, organism-based, Macaca fascicularis; conditions: in vivo
[26] = test system: Caudate; assay: Drug uptake in anesthetized cynomolgus monkey brain caudate after 2.5 mins postinjection; assay type: ADME, organism-based, Macaca fascicularis, Caudate nucleus; conditions: in vivo
[27] = test system: Caudate; assay: Drug uptake in anesthetized cynomolgus monkey brain caudate after 6.5 mins postinjection; assay type: ADME, organism-based, Macaca fascicularis, Caudate nucleus; conditions: in vivo
[28] = test system: Caudate; assay: Drug uptake in anesthetized cynomolgus monkey brain caudate after 12.5 mins postinjection; assay type: ADME, organism-based, Macaca fascicularis, Caudate nucleus; conditions: in vivo
[29] = test system: Caudate; assay: Drug uptake in anesthetized cynomolgus monkey brain caudate after 75 mins postinjection; assay type: ADME, organism-based, Macaca fascicularis, Caudate nucleus; conditions: in vivo, 1.25 h
[30] = test system: Caudate; assay: Drug uptake in anesthetized cynomolgus monkey brain caudate after 95 mins postinjection; assay type: ADME, organism-based, Macaca fascicularis, Caudate nucleus; conditions: in vivo
[31] = test system: Putamen; assay: Drug uptake in anesthetized cynomolgus monkey brain putamen after 2.5 mins postinjection; assay type: ADME, organism-based, Macaca fascicularis; conditions: in vivo
[32] = Ratio of drug uptake in occipital lobe to cerebellum in anesthetized cynomolgus monkey after 18.5 mins postinjection; assay type: ADME, organism-based, Macaca fascicularis; conditions: in vivo
[33] = test system: Thalamus; assay: Drug uptake in anesthetized cynomolgus monkey brain thalamus after 2.5 mins postinjection; assay type: ADME, organism-based, Macaca fascicularis; parameters: unit not given here; conditions: in vivo
[34] = test system: Thalamus; assay: Drug uptake in anesthetized cynomolgus monkey brain thalamus after 4.5 mins postinjection; assay type: ADME, organism-based, Macaca fascicularis; parameters: unit not given here; conditions: in vivo, 0.075 h
[35] = test system: Thalamus; assay: Drug uptake in anesthetized cynomolgus monkey brain thalamus after 6.5 mins postinjection; assay type: ADME, organism-based, Macaca fascicularis; parameters: unit not given here; conditions: in vivo
[36] = test system: Thalamus; assay: Drug uptake in anesthetized cynomolgus monkey brain thalamus after 22.5 mins postinjection; assay type: ADME, organism-based, Macaca fascicularis; parameters: unit not given here; conditions: in vivo, 0.375 h
[37] = test system: Putamen; assay: Drug uptake in anesthetized cynomolgus monkey brain putamen after 12.5 mins postinjection; assay type: ADME, organism-based, Macaca fascicularis; parameters: unit not given here; conditions: in vivo
[38] = test system: Putamen; assay: Drug uptake in anesthetized cynomolgus monkey brain putamen after 15.5 mins postinjection; assay type: ADME, organism-based, Macaca fascicularis; parameters: unit not given here; conditions: in vivo
[39] = test system: Putamen; assay: Drug uptake in anesthetized cynomolgus monkey brain putamen after 22.5 mins postinjection; assay type: ADME, organism-based, Macaca fascicularis; parameters: unit not given here; conditions: in vivo, 0.375 h
[40] = test system: Putamen; assay: Drug uptake in anesthetized cynomolgus monkey brain putamen after 35 mins postinjection; assay type: ADME, organism-based, Macaca fascicularis; parameters: unit not given here; conditions: in vivo
[41] = test system: Putamen; assay: Drug uptake in anesthetized cynomolgus monkey brain putamen after 55 mins postinjection; assay type: ADME, organism-based, Macaca fascicularis; parameters: unit not given here; conditions: in vivo
[42] = test system: Thalamus; assay: Drug uptake in anesthetized cynomolgus monkey brain thalamus after 75 mins postinjection; assay type: ADME, organism-based, Macaca fascicularis; parameters: unit not given here; conditions: in vivo, 1.25 h
[43] = test system: Thalamus; assay: Drug uptake in anesthetized cynomolgus monkey brain thalamus after 85 mins postinjection; assay type: ADME, organism-based, Macaca fascicularis; parameters: unit not given here; conditions: in vivo
[44] = test system: Thalamus; assay: Drug uptake in anesthetized cynomolgus monkey brain thalamus after 125 mins postinjection; assay type: ADME, organism-based, Macaca fascicularis; parameters: unit not given here; conditions: in vivo
[45] = test system: Thalamus; assay: Drug uptake in anesthetized cynomolgus monkey brain thalamus after 225 mins postinjection; assay type: ADME, organism-based, Macaca fascicularis; parameters: unit not given here; conditions: in vivo, 3.75 h
[46] = test system: Midbrain; assay: Drug uptake in anesthetized cynomolgus monkey brain midbrain after 0.5 mins postinjection; assay type: ADME, organism-based, Macaca fascicularis; parameters: unit not given here; conditions: in vivo
[47] = test system: Midbrain; assay: Drug uptake in anesthetized cynomolgus monkey brain midbrain after 15.5 mins postinjection; assay type: ADME, organism-based, Macaca fascicularis; parameters: unit not given here; conditions: in vivo
[48] = test system: Midbrain; assay: Drug uptake in anesthetized cynomolgus monkey brain midbrain after 22.5 mins postinjection; assay type: ADME, organism-based, Macaca fascicularis; parameters: unit not given here; conditions: in vivo, 0.375 h
[49] = test system: Midbrain; assay: Drug uptake in anesthetized cynomolgus monkey brain midbrain after 35 mins postinjection; assay type: ADME, organism-based, Macaca fascicularis; parameters: unit not given here; conditions: in vivo
[50] = test system: Midbrain; assay: Drug uptake in anesthetized cynomolgus monkey brain midbrain after 95 mins postinjection; assay type: ADME, organism-based, Macaca fascicularis; parameters: unit not given here; conditions: in vivo
[51] = Ratio of drug uptake in midbrain to cerebellum in anesthetized cynomolgus monkey after 9.5 mins postinjection; assay type: ADME, organism-based, Macaca fascicularis; conditions: in vivo
[52] = Ratio of drug uptake in midbrain to cerebellum in anesthetized cynomolgus monkey after 135 mins postinjection; assay type: ADME, organism-based, Macaca fascicularis; conditions: in vivo, 2.25 h

SMILES: O=C(OCC[18F])C1C2CCC(CC1c1cccc(/C=C\I)c1)N2 (configuration not stated)
- Ratio [1]: 1.1
- Ratio [2]: 1.3
- Drug uptake [3]: 2
- Drug uptake [4]: 2.82
- Drug uptake [5]: 3.44
- Drug uptake [6]: 2.53
- Drug uptake [7]: 0.09
- Ratio [8]: 0.9
- Ratio [9]: 1.1
- Drug uptake [10]: 3.97
- Drug uptake [11]: 3.46
- Drug uptake [12]: 0.09
- Drug uptake [13]: 0.44
- Drug uptake [14]: 2.91
- Drug uptake [15]: 3.34
- Drug uptake [16]: 3.21
- Drug uptake [17]: 3.05
- Ratio [18]: 1.3
- Drug uptake [19]: 2.5
- Drug uptake [20]: 3.53
- Drug uptake [21]: 3.56
- Drug uptake [22]: 3.04
- Drug uptake [23]: 4.02
- Drug uptake [24]: 3.23
- Ratio [25]: 1.7
- Drug uptake [26]: 0.37
- Drug uptake [27]: 2.02
- Drug uptake [28]: 2.74
- Drug uptake [29]: 3.62
- Drug uptake [30]: 3.39
- Drug uptake [31]: 0.44
- Ratio [32]: 0.7
- Drug uptake [33]: 0.43
- Drug uptake [34]: 1.57
- Drug uptake [35]: 2.49
- Drug uptake [36]: 3.88
- Drug uptake [37]: 3.33
- Drug uptake [38]: 3.61
- Drug uptake [39]: 3.96
- Drug uptake [40]: 4.28
- Drug uptake [41]: 4.37
- Drug uptake [42]: 4.16
- Drug uptake [43]: 4.04
- Drug uptake [44]: 3.41
- Drug uptake [45]: 2.29
- Drug uptake [46]: 0
- Drug uptake [47]: 4.07
- Drug uptake [48]: 4.56
- Drug uptake [49]: 4.85
- Drug uptake [50]: 4.55
- Ratio [51]: 1
- Ratio [52]: 2
